In PMC9573294, “AVA-NP-695 Selectively Inhibits ENPP1 to Activate STING Pathway and Abrogate Tumor Metastasis in 4T1 Breast Cancer Syngeneic Mouse Model” (Molecules, 2022):

Target: T1, Ectonucleotide pyrophosphatase/phosphodiesterase 1 (ENPP1) (Homo sapiens, UniProt P22413)
T1 construct: Human recombinant ENPP1 (rENPP1)
T1 sequence (P22413 98-925 limits assumed): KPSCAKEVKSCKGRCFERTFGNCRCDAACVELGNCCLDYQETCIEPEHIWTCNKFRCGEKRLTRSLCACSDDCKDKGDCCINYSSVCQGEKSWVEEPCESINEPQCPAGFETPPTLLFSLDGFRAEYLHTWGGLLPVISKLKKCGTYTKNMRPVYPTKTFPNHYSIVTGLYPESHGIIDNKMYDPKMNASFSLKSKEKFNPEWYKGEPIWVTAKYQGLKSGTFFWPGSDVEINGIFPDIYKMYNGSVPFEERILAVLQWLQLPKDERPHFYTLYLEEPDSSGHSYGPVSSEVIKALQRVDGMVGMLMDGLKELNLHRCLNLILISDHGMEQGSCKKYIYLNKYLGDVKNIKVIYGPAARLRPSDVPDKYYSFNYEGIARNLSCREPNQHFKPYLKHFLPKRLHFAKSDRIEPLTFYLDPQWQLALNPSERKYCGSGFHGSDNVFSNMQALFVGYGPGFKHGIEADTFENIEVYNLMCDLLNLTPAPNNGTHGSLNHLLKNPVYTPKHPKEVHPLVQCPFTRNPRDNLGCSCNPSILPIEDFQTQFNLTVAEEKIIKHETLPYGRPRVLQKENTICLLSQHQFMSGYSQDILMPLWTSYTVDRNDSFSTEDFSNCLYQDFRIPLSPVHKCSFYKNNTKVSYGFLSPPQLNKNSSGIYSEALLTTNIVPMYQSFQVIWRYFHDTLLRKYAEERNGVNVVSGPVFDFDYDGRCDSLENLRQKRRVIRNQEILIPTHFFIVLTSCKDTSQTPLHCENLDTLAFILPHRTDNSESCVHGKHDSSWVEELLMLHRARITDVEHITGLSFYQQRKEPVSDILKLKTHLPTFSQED
Assay: enzymatic assay with p-Nph-5'-TMP substrate (Ki […] with […]'[…]'-cGAMP and […] with p-NPh-5'-TMP also printed)
Format: biochemical

Substance: AVA-NP-695
- IC50: 14 ± 2 nM
